This is an account of results in article PMC7369637, “Inhibition of Resistance-Refractory P. falciparum Kinase PKG Delivers Prophylactic, Blood Stage, and Transmission-Blocking Antiplasmodial Activity” (Cell Chemical Biology, 2020).

Each structure is given as a SMILES string. Read-outs that look alike come from different tables or passages of the source.

The test system of assay [1] is early and late stage gametocytes (3D7elo1-pfs16-CBG99). Description: Gametocyte susceptibility, CBG99-luciferase assay. As to conditions: Plasmodium falciparum. The format is cell-based. The method, then:
This was determined using two separate assays. The first involved MitoTracker staining and high-content imaging. Mature (stage V) gametocytes were generated from NF54 ABS cultures as described elsewhere ([Plouffe et al., 2016]). Briefly, asexual parasites were cultured at 5% hematocrit in O^+ human erythrocytes in serum-containing complete media (RPMI 1640 (Life Technologies), 0.05 mg/ml gentamicin (Life Technologies), 0.014 mg/ml hypoxanthine (Sigma), 38.4 mM HEPES (Sigma), 0.2% (w/v) sodium bicarbonate (Sigma), D-glucose 0.2% (w/v) (Sigma), 3.4 mM sodium hydroxide (Sigma), 4.3% (v/v) heat-inactivated human serum (O^+, Interstate Blood bank), and 0.2% (w/v) AlbuMAX® II (Life Technologies)). Parasites were cultured at 37 °C under low-oxygen conditions (3% O2, 5% CO2, 92% N2) and parasitemias were maintained between 0.5% and 3% in cultures with 5% hematocrit. Ring-stage parasites underwent three rounds of synchronization with 5% (w/v) D-Sorbitol (Sigma), on days -8, -6 and -4 relative to the day of initiating gametocyte production. Trophozoite-stage parasites were shaken overnight at 37°C until day -1. On day -2 only 50% of the media was exchanged to provide additional stress to cultures, whose parasitemias had typically attained 7-10%. Complete media exchange was performed daily from day -1 onwards. Stage V gametocytes were treated with 50 mM N-acetyl glucosamine (Sigma) on days 0-9. […] The second assay assessed gametocyte susceptibility using a luciferase-based assay with 3D7elo1-pfs16-CBG99 transgenic parasites ([Cevenini et al., 2014]). […] Cell viability was then evaluated by adding a non-lysing formulation of 0.5 mM D-Luciferin substrate and measuring luciferase activity for 0.5 s on a Varioskan™ Flash Multimode Reader (Thermo Scientific). The percent of viability was calculated as a function of drug concentration and IC50 values were derived by non-linear regression analysis and curve fitting (using GraphPad Prism 6.0).

A further assay concerns PP1 cKD line. Nature of the assay: Compound susceptibility assay using cKD lines (72 h, Renilla luciferase). In kind it is cell-based, Plasmodium falciparum. As to conditions: Plasmodium falciparum. The source says: (§1) To study the interaction between the compounds and PKG (PF3D7_1436600), AAT (PF3D7_1231400), CDPK1 (PF3D7_0217500), TKL3 (PF3D7_1349300), PP1 (PF3D7_1414400), and URP (PF3D7_0808300), cKD lines were generated by fusing the transcripts with RNA aptamers for translation regulation with the TetR/DOZI system ([Ganesan et al., 2016]). The right homology regions (RHR) of each target gene were amplified by PCR, using the primers listed in Table S1 (A), and along with the left homology regions (LHR) were fused to the re-codonized 3'-end region of the gene. Single guide RNA fragments were synthesized using the BioXP™ 3200 System (SGI-DNA; Table S1 (A)) and were cloned into the pSN054 vector ([Nasamu et al., 2019]) to install the C-terminal epitope tags V5 and 2x-hemagglutinin (HA) followed by a 10x RNA aptamer array and the TetR-DOZI expression cassette. This cassette also contained Blasticidin S-deaminase for selection in the parasites and the reporter gene Renilla luciferase (RLuc). The 3'-end of each target was re-codonized to avoid further modifications of the edited locus in the parasite via removal of the PAM site. Donor vector generation was carried out via Gibson assembly, and the final construct sequence was confirmed by restriction digests and Sanger sequencing.
(§2) Transfection into parasites was carried out by preloading erythrocytes with linearized vectors as described previously ([Deitsch et al., 2001]). Briefly, 50 μg of purified plasmid DNA was mixed with human RBC and subjected to 8 square wave electroporation pulses of 365 V for 1 ms each, separated by 0.1 s in a 0.2 cm cuvette. The plasmid DNA preloaded cells were inoculated with NF54 parasites expressing Cas9 and T7 RNA polymerase, maintained in 500 nM anhydrotetracycline (aTc, Sigma-Aldrich 37919), and drug selection with 2.5 μg/mL of Blasticidin (RPI Corp B12150-0.1) was initiated four days after transfection. Emergence of transfectants was monitored via Giemsa smears and RLuc measurements.
(§3) Synchronized ring-stage cKD parasites in varying aTc concentrations (high = 50 nM, intermediate = 1.5 nM, low = 1 nM, and no aTc) were distributed into the drug plate. No-drug treatment and treatment with a lethal dose of chloroquine (200 nM) served as reference controls.

The test system of the next assay is AAT cKD line. Described as above. In kind it is cell-based, Plasmodium falciparum. As to conditions: for IC50: Plasmodium falciparum, AAT cKD line.
Description: as §1, §2, §3

In a further assay the test system is URP cKD line. Described as above. The format is cell-based, Plasmodium falciparum. The settings on record: Plasmodium falciparum.
Description: as §1, §2, §3

A further assay relates to PKG cKD line. The description is as above. As to conditions: for IC50: Plasmodium falciparum, PKG cKD line. The format is cell-based, Plasmodium falciparum.
Description: as §1, §2, §3

The next assay relates to CDPK1 cKD line. Described as above. The format is cell-based, Plasmodium falciparum. The settings on record: for IC50: Plasmodium falciparum, CDPK1 cKD line.
Description: as §1, §2, §3

The next assay relates to TKL3 cKD line. Described as above. The format is cell-based, Plasmodium falciparum. The settings on record: for IC50: Plasmodium falciparum, TKL3 cKD line.
Description: as §1, §2, §3

In general, IC50 refers to the concentration that inhibits the measured activity by half.

Consider `CC(C)(CN)c1nc(-c2ccc(Cl)c(O)c2)c(-c2ccncc2)[nH]1` [MMV030084], for which the IC50 is over 37500 nM in assay [1] (read-out: IC50, sexual gametocyte stage (Figure 1B)); over 40000 nM in assay [1] (CBG99-luciferase assay, 48 h, read-out: IC50, early stage gametocytes); over 40000 nM in assay [1] (CBG99-luciferase assay, 48 h, read-out: IC50, late stage gametocytes); 39.2 nM with PP1 cKD line (Control, [aTc] used 50.0); 57 nM with PP1 cKD line (KD, [aTc] used 1.5); 50.6 nM in the assay on AAT cKD line (Control, [aTc] used 50.0). Besides, the IC50 in the assay on AAT cKD line (KD, [aTc] used 0.0) came out at 29.8 nM; in the assay on URP cKD line (Control, [aTc] used 50.0) it was 35.9 nM; with URP cKD line (KD, [aTc] used 0.0), 42.4 nM; in the assay with PKG cKD line (Control, [aTc] used 50.0), 27.4 nM; in the assay on PKG cKD line (KD, [aTc] used 1.0), 6.6 nM; with CDPK1 cKD line (Control, [aTc] used 50.0), 45.4 nM. In addition, the half-inhibitory concentration (IC50) with CDPK1 cKD line (KD, [aTc] used 1.0) worked out at 41.5 nM; in the assay on TKL3 cKD line (Control, [aTc] used 50.0), 42.4 nM; in the assay on TKL3 cKD line (KD, [aTc] used 0.0) it was 88.6 nM. Also, the “Decrease in IC50 under AAT cKD conditions” value in the assay on AAT cKD line (cKD vs control) came to 1.7 fold. Moreover, in the assay with PKG cKD line (cKD vs control), the “Sensitization when PKG was knocked down” value is recorded as 4.2 fold. Besides, in the assay with CDPK1 cKD line (cKD vs control), the “Change in susceptibility when CDPK1 was knocked down” value is given as “No change”. The “Increase in IC50 induced by TKL3 knockdown” value in the assay on TKL3 cKD line (cKD vs isogenic control) is 2.1 fold.
